The text below walks through data of patent publication US20200207726A1, “INDOLINYL SULFONAMIDE AND RELATED COMPOUNDS FOR USE AS AGONISTS OF RORY AND THE TREATMENT OF DISEASE” (Lycera Corporation, priority 2017, published 2020).

In one assay the target is T1, RORγ-LBD (Homo sapiens, UniProt P51449).
T1 construct: made in house; host or cells: SF9 cells, baculovirus expression system (lysate used)
T1 sequence (P51449 269-508 limits assumed): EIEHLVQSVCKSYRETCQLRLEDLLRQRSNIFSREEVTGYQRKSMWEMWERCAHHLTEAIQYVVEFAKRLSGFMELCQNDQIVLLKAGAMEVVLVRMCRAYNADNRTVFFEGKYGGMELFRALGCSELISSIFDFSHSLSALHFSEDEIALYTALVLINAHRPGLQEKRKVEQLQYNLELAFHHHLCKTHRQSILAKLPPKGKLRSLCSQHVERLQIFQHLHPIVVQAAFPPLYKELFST
Nature of the assay: RORγ-Ligand Binding Domain (LBD) TR-FRET Assay. The assay is classed as biochemical. Conditions: for TR-FRET Assay Max Response: upper plateau of 4-parameter fit, signal in absence of ursolic acid or test compound set as 100; for EC50: with 2 μM ursolic acid (RORγ antagonist), highest test concentration 10 μM. The protocol:
HIS-tagged RORγ-LBD protein was expressed in SF9 cells using a baculovirus expression system. The lysate was diluted in assay buffer (50 mM Tris pH 7.0, 50 mM KCl, 1 mM EDTA, 0.1 mM DTT, 0.01% BSA) to obtain RORγ-LBD final concentration of −3 nM in a 384-well assay plate (need to titrate for each batch of protein).
A stock of biotinylated-LXXLL peptide from coactivator SRC1 (Biotin-[…]) was prepared in assay buffer and added to each well (200 nM final concentration). A solution of Europium tagged anti-HIS antibody (0.6 nM final concentration) and APC-conjugated streptavidin (30 nM final concentration) were also added to each well. RORγ antagonist ursolic acid was also included at a final concentration of 2 μM. Compounds were diluted in DMSO and further diluted in assay buffer with a final DMSO concentration at 1%. The highest concentration of test compound analyzed was 10 μM.
The final assay mixture was incubated overnight at 4° C. or 2 hours at room temperature, and the fluorescence signal was measured on an Envision plate reader: (Excitation filter=340 nm; APC emission=665 nm; Europium emission=615 nm; dichroic mirror=D400/D630; delay time=100 μs, integration time=200 μs). 50% Effective concentration (EC50) values for test compounds were calculated from the quotient of the fluorescence signal at 665 nm divided by the fluorescence signal at 615 nm. The quotient of the fluorescence signals in the absence of ursolic acid or test compound is set as 100. Max Response is defined as the upper plateau in the signal as determined by line-fit using a 4-parameter logistic model in PRISM (GraphPad).

For a further assay, the target named is T2, Gal4-RORγ-LBD (Homo sapiens, UniProt P51449).
T2 construct: expressed in transfected cells; host or cells: HEK-293 cells, pcDNA3.1neo plasmid
T2 sequence (P51449 269-508 limits assumed): T1 sequence (P51449 269-508 limits assumed)
Nature of the assay: Gal4-RORγ Luciferase Reporter Assay in HEK-293T Cells. The assay is classed as cell-based. Conditions: for EC50: HEK-293 cells, with 2 μM ursolic acid, overnight incubation; for Gal4-RORγ Assay Max Response: upper plateau of 4-parameter fit, luciferase signal in absence of ursolic acid or test compound defined at 100. The protocol: In the following protocol, HEK-293 cells were transfected with a construct comprising the Gal4 DNA binding domain fused to the ligand binding domain of RORγ (Gal4-RORγ-LBD) in a pcDNA3.1neo plasmid, and also with a reporter construct comprising pGL4.31 Gal4-luciferase (Promega). Control cells were prepared similarly using empty pcDNA3.1neo and pGL4.31 vectors.
Trans-IT reagent (Mirus, 60 μL) at room temperature was added drop wise to OptiMEM (Invitrogen, 1.5 ml). This reagent mixture was mixed by inversion then incubated for 5 to 30 minutes at room temperature. It then was added to a solution of both expression vectors (5 μg each), mixed, and incubated at room temperature for about 20 minutes. HEK-293 cells were harvested from incubation flasks by removing the media, treating with TrypLE Express (Invitrogen), and incubating until the cells detached from the bottom of the flask (approximately 2-5 minutes). 10 Million cells were collected by centrifugation and re-suspended in 10 mL of Dulbecco's Modified Eagle Medium, High Glucose (DMEM, Invitrogen) containing 10% Fetal Bovine Serum and 100 IU each of penicillin and streptomycin. The re-suspended cells and the transfection mixture were added to a T75 flask, mixed and incubated overnight at 37° C. and 5% CO2.
The cells were harvested as described above, counted, and centrifuged to obtain the desired number of cells, then re-suspended in complete growth media at 0.75×10^6 cells/mL. The RORγ antagonist, ursolic acid, was added to the cells at a final concentration of 2 μM. Cells were plated at 20 μL of cell suspension/well (10,000-15,000 cells/well) in white tissue culture treated 384 well plates. Test compounds were dissolved at 10 mM in DMSO then diluted into complete growth medium to 5× the final intended test concentration. These drug stock solutions, 5 μL/well were added to the tissue culture plate. The final DMSO concentration was 0.2%. The plates were briefly centrifuged then incubated overnight at 37° C. and 5% CO2. To conduct the assay, the tissue culture plates were allowed to equilibrate to room temperature and One-Glo luciferase reagent (Promega, 25 μL/well) was added. The plates were briefly centrifuged then incubated at room temperature for 10 minutes. The luciferase intensity was read on an Envision plate reader (Perkin Elmer). RORγ activity was determined relative to controls and plotted as a function of test compound concentration using PRISM (GraphPad) to determine a 50% effective concentration (EC50). The luciferase signal in the absence of ursolic acid or test compound is defined at 100. The Max Response is the upper plateau in the signal as determined by line-fit using a 4-parameter logistic model in PRISM (GraphPad).

On to `O=C(O)CCc1cc2ccc(-c3cc(F)ccc3F)cc2n1S(=O)(=O)c1cccc(C(F)(F)F)c1` [Example 8, 3-(6-(2,5-difluorophenyl)-1-((3-(trifluoromethyl)phenyl)sulfonyl)-1H-indol-2-yl)propanoic acid], for which, on RORγ-LBD, the “TR-FRET Assay Max Response” value is given as “*** (a value in the range of greater than 150 to 200)” and the concentration for a half-maximal effect (EC50) is 500 to 5000 nM. Further, on Gal4-RORγ-LBD, the concentration for a half-maximal effect (EC50) lay within 500 to 5000 nM and the “Gal4-RORγ Assay Max Response” value is reported as “** (a value in the range of greater than 90 to 150)”.

For `O=C(O)CC1CN(S(=O)(=O)c2cccc(C(F)(F)F)c2)c2cc(-c3cc(F)ccc3F)ccc21` (stereo not drawn) [Example 3, 2-(6-(2,5-difluorophenyl)-1-((3-(trifluoromethyl)phenyl)sulfonyl)indolin-3-yl)acetic acid], at RORγ-LBD, the “TR-FRET Assay Max Response” value is “** (a value in the range of greater than 90 to 150)” and the EC50 is under 500 nM. At Gal4-RORγ-LBD, the concentration giving a half-maximal response (EC50) was 5000 to 10000 nM and the “Gal4-RORγ Assay Max Response” value is on record as “** (a value in the range of greater than 90 to 150)”.

Take `CCOC(=O)CC1CN(S(=O)(=O)c2cccc(C(F)(F)F)c2)c2cc(-c3cc(F)ccc3F)ccc21` (stereo not drawn) [Example 2, ethyl 2-(6-(2,5-difluorophenyl)-1-((3-(trifluoromethyl)phenyl)sulfonyl)indolin-3-yl)acetate]: at RORγ-LBD, the “TR-FRET Assay Max Response” value is given as “*** (a value in the range of greater than 150 to 200)” and the EC50 was under 500 nM. Further, on Gal4-RORγ-LBD, the 50% effective concentration (EC50) is under 500 nM and the “Gal4-RORγ Assay Max Response” value is on record as “** (a value in the range of greater than 90 to 150)”.

Turning to `O=C(O)CCC1Cc2ccc(-c3cc(F)ccc3F)cc2N1S(=O)(=O)c1cccc(C(F)(F)F)c1` (stereo not drawn) [Example 6, 3-(6-(2,5-difluorophenyl)-1-((3-(trifluoromethyl)phenyl)sulfonyl)indolin-2-yl)propanoic acid], at RORγ-LBD, the “TR-FRET Assay Max Response” value is given as “*** (a value in the range of greater than 150 to 200)” and the 50% effective concentration (EC50) was under 500 nM. At Gal4-RORγ-LBD, the EC50 is 500 to 5000 nM and the “Gal4-RORγ Assay Max Response” value was “*** (a value in the range of greater than 150 to 200)”.

On to `O=S(=O)(c1cccc(C(F)(F)F)c1)N1COc2ccc(-c3cc(F)ccc3F)cc21` [Example 1, 5-(2,5-difluorophenyl)-3-((3-(trifluoromethyl)phenyl)sulfonyl)-2,3-dihydrobenzo[d]oxazole], for which, at RORγ-LBD, the “TR-FRET Assay Max Response” value was “*** (a value in the range of greater than 150 to 200)” and the EC50 was under 500 nM. Also, at Gal4-RORγ-LBD, the EC50 is under 500 nM and the “Gal4-RORγ Assay Max Response” value is “** (a value in the range of greater than 90 to 150)”.

In the case of `COC(=O)CCC1Cc2ccc(-c3cc(F)ccc3F)cc2N1S(=O)(=O)c1cccc(C(F)(F)F)c1` (stereo not drawn) [Example 5, methyl 3-(6-(2,5-difluorophenyl)-1-((3-(trifluoromethyl)phenyl)sulfonyl)indolin-2-yl)propanoate], at RORγ-LBD, the “TR-FRET Assay Max Response” value was “*** (a value in the range of greater than 150 to 200)” and the EC50 is under 500 nM. Moreover, at Gal4-RORγ-LBD, the EC50 is under 500 nM and the “Gal4-RORγ Assay Max Response” value is given as “** (a value in the range of greater than 90 to 150)”.

With `O=S(=O)(c1cccc(C(F)(F)F)c1)c1c[nH]c2ccc(-c3cc(F)ccc3F)cc12` [Example 4, 5-(2,5-difluorophenyl)-3-((3-(trifluoromethyl)phenyl)sulfonyl)-1H-indole], at Gal4-RORγ-LBD, the EC50 was over 10000 nM and the “Gal4-RORγ Assay Max Response” value is “* (a value in the range of 25 to 90)”.

As to `COC(=O)CCc1cc2ccc(-c3cc(F)ccc3F)cc2n1S(=O)(=O)c1cccc(C(F)(F)F)c1` [Example 7, methyl 3-(6-(2,5-difluorophenyl)-1-((3-(trifluoromethyl)phenyl)sulfonyl)-1H-indol-2-yl)propanoate], at RORγ-LBD, the “TR-FRET Assay Max Response” value is “*** (a value in the range of greater than 150 to 200)” and the EC50 lay within 500 to 5000 nM. At Gal4-RORγ-LBD, the concentration for a half-maximal effect (EC50) is 500 to 5000 nM and the “Gal4-RORγ Assay Max Response” value is on record as “* (a value in the range of 25 to 90)”.
